Results published in paper PMC7555330, “In Silico Identification and Biological Evaluation of Antioxidant Food Components Endowed with Human Carbonic Anhydrase IX and XII Inhibition” (Antioxidants, 2020).
Read-outs that look alike come from different tables or passages of the source. Blank lines part the entries; values can stand above or below the compound they belong to.

Assays:
[1] = MTT cell viability assay; assay type: cell-based; details: human, Caco-2 cells; Caco-2, 10 µM, 72 h after treatment, percentage of control
Procedure: The human colorectal cancer cells Caco-2 were maintained in Dulbecco’s Modified Eagle Medium (DMEM, Sigma-Aldrich, St. Louis, MO, USA) integrated with 10% of FBS (Fetal Bovine Serum, Sigma-Aldrich, St. Louis, MO, USA) and 1% P/S (Penicillin, Streptomycin, Sigma-Aldrich, St. Louis, MO, USA). Cells’ culture conditions were 5% CO2 incubator at 37 °C. Cell viability was assessed through an MTT assay: 1 × 10^4 cells/well were plated in a 96-well microplate and, two hours later, treated with 6, 12, and 14 (the latter dissolved in DMSO) at 10 µM concentration. After 24, 48, and 72 h, 20 µL of 3-(4,5-dimethylthiazol-2-yl)-2,5 diphenyl tetrazolium (MTT detection reagent, Sigma-Aldrich, St. Louis, MO, USA) was added on the plate at the final concentration of […], and incubated for two more hours. Culture agent was removed and 200 µL of isopropanol (0.04 M HCl) were added to solubilizeformazan crystals. Absorbance was measured at 560 nm by the Victor 3 reader.

[2] = target: T1, hCA XII (Homo sapiens, UniProt O43570); assay: stopped-flow CO2 hydrase assay, hCA XII; assay type: biochemical; details: for selectivity index (SI; KI hCA IX/KI hCA XII): hCA XII over hCA IX
T1 construct: made in house
Procedure: (§1) The CA-catalyzed CO2 hydration activity of the compounds reported was assayed by means of the Applied Photophysics stopped-flow instrument. Phenol red was used as a pH indicator at a concentration of 0.2 mM, the instrument was set at working maximum absorbance maximum of 557 nm, the solutions were buffered at pH 7.5 with 20 mM HEPES, and 20 mM Na2SO4 was added for keeping constant the ionic strength, to follow the initial rates of the enzyme-catalyzed CO2 hydration reaction for a period of 10–100 s. The CO2 concentrations for the determination of the kinetic parameters and inhibition constants ranged from 1.7 to 17 mM.
(§2) The uncatalyzed rates were determined in the same experimental manner and subtracted from the total observed values. Stock solutions of the potential inhibitor (0.1 mM) were prepared by using distilled deionized water, and the dilutions with the assay buffer were prepared up to 0.01 nM. The solutions containing the inhibitor and the enzyme were preincubated for 30 min at r.t. prior to performing the assay, in order to form the E−I adduct. The inhibition constants (KIS) were obtained by the nonlinear least squares methods using PRISM 3 and the Cheng−Prusoff equation, as reported earlier, and represent the mean from three different experimental determinations. All CA isoforms herein reported were recombinant and obtained in-house.

[3] = target: T2, hCA II (Homo sapiens, UniProt P00918); assay: stopped-flow CO2 hydrase assay, hCA II; assay type: biochemical
T2 construct: made in house
Procedure: as §1, §2

[4] = target: T3, hCA I (Homo sapiens, UniProt P00915); assay: stopped-flow CO2 hydrase assay, hCA I; assay type: biochemical
T3 construct: made in house
Procedure: as §1, §2

[5] = target: T4, hCA IX (Homo sapiens, UniProt Q16790); assay: stopped-flow CO2 hydrase assay, hCA IX; assay type: biochemical; details: mean of three assays, errors ±5–10%
T4 construct: made in house
Procedure: as §1, §2

[6] = target: T4, hCA IX; details: literature statement; cited from earlier work
[7] = target: T1, hCA XII; details: literature statement; cited from earlier work
[8] = target: T3, hCA I; set-up: method as in PMID 26498393; details: stopped-flow CO2 hydrase assay; cited from earlier work
[9] = target: T2, hCA II; set-up: method as in PMID 26498393; details: stopped-flow CO2 hydrase assay; cited from earlier work

T3 sequence (P00915 whole entry): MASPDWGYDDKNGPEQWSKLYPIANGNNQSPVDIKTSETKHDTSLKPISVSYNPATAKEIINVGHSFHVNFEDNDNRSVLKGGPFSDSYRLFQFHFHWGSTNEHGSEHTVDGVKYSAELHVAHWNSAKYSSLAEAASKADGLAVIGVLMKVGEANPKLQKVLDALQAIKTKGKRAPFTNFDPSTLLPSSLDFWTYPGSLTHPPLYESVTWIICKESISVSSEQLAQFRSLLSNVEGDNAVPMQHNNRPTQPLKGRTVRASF
T1 sequence (O43570 25-354): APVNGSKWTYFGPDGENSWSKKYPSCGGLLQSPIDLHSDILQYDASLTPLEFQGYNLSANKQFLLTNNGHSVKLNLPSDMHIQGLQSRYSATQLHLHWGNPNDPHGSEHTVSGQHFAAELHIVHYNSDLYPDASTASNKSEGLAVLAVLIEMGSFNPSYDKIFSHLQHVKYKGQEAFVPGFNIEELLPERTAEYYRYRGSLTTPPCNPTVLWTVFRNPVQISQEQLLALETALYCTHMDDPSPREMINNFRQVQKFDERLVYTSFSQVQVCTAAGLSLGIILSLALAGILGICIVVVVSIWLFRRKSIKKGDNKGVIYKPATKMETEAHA

SMILES: COc1cc(/C=C/CO)cc(OC)c1O[C@@H]1O[C@H](CO)[C@@H](O)[C@H](O)[C@H]1O [compound 14, syringin]
viability at 72 h, 10 µM [1]: ~50%
Ki [2]: 92 nM
selectivity index (SI; KI hCA IX/KI hCA XII) [2]: 3.5 fold
Ki [3]: > 100000 nM
Ki [4]: > 100000 nM
Ki [5]: 320 nM

SMILES: COc1ccccc1O [Guaiacol]
Ki hCA IX [6]: low micromolar range
Ki hCA XII [7]: low micromolar range

SMILES: O=C(/C=C/c1ccc(O)c2c1[C@H](C(=O)O)[C@@H](c1ccc(O)c(O)c1)O2)O[C@H](Cc1ccc(O)c(O)c1)C(=O)O [compound 12, lithospermic acid]
viability at 72 h, 10 µM [1]: ~50%
Ki [8]: > 100000 nM
Ki [9]: > 100000 nM

selectivity index (SI; KI hCA IX/KI hCA XII) [2]: 27.0 fold
Ki ([2]; stopped-flow CO2 hydrase assay, mean of three assays, errors ±5–10%, read-out: KI hCA XII): 96 nM
Ki ([3]; stopped-flow CO2 hydrase assay, mean of three assays, errors ±5–10%, read-out: KI hCA II): > 100000 nM
Ki ([4]; stopped-flow CO2 hydrase assay, mean of three assays, errors ±5–10%, read-out: KI hCA I): > 100000 nM
Ki [5]: 2590 nM
SMILES: COc1cc([C@@H]2Oc3c(OC)cc(/C=C/CO)cc3[C@H]2CO)ccc1O [compound 6, (-)-dehydrodiconiferyl alcohol]
viability at 72 h, 10 µM [1]: ~70%
